Results: BigSolDB 2.1

CC(=O)N1CCN(c2ccc(O)cc2)CC1
solubility (mole fraction)
Settings	283.15 K	288.15 K	293.15 K	298.15 K	303.15 K	308.15 K	313.15 K	318.15 K	323.15 K
in 2-butoxyethanol	0.00309	0.00373	0.00457	0.00537	0.00617	0.00726	0.00852	0.0102	0.0118
in 2-ethoxyethanol	0.00486	0.0059	0.00705	0.00829	0.00963	0.0112	0.0134	0.0156	0.0179
in 2-methoxyethanol	0.00715	0.00822	0.00968	0.0114	0.0133	0.0153	0.0181	0.0212	0.0242
in 2-propoxyethanol	0.00403	0.00474	0.00574	0.00686	0.00813	0.00951	0.011	0.0128	0.015
in acetonitrile	0.001	0.00124	0.0015	0.00181	0.00217	0.00259	0.00304	0.00359	0.00433
in ethanol	0.00218	0.00273	0.00328	0.00396	0.00467	0.00551	0.00634	0.00749	0.00887
in ethylene glycol	0.000479	0.000658	0.000921	0.00123	0.00167	0.00225	0.00293	0.00405	0.00538
in isobutanol	0.00108	0.00141	0.00172	0.00214	0.00251	0.00292	0.00353	0.00415	0.00508
in isopropanol	0.00132	0.00165	0.00204	0.00263	0.00327	0.00418	0.00526	0.00636	0.00796
in methanol	0.00286	0.00346	0.00411	0.00485	0.00581	0.00679	0.00806	0.00952	0.0111
in n-butanol	0.00119	0.00151	0.00186	0.00232	0.00298	0.00392	0.00488	0.00612	0.00765
in n-propanol	0.00179	0.00206	0.00238	0.00306	0.00372	0.00459	0.00561	0.00683	0.00829
